According to patent EP4603105A1, “PHARMACEUTICAL COMPOSITION CONTAINING CYCLIC COMPOUND HAVING SELECTIVE KRAS INHIBITORY EFFECT AGAINST HRAS AND NRAS” (CHUGAI SEIYAKU KABUSHIKI KAISHA, priority 2022, dated 2024):
*1 amine or outer side, *2 acyl side, *3 side chain or, on linkers, in order; H or OH if unused. Where a SMILES comes first, the peptide text is derived from it. Bridges are numbered along the chain shown (N, C = ends). [ ]: non-standard residue; d: D form. The star is where a group is joined. hPhe(3-Cl-4-CF3) = N[C@@H](CCc1ccc(C(F)(F)F)c(Cl)c1)C(=O)O; NPrPhe(4-CF3) = CCCN[C@@H](Cc1ccc(C(F)(F)F)cc1)C(=O)O; NPrAsp = CCCN([C@@H](CC(=O)[*:3])C(=O)[*:2])[*:1]; NMePhe(4-Me) = CN[C@@H](Cc1ccc(C)cc1)C(=O)O; NMeGly(cPent) = CN[C@H](C(=O)O)C1CCCC1; NMeNva(3-Et) = CCC(CC)[C@H](NC)C(=O)O; NMeGly(cBu) = CN[C@H](C(=O)O)C1CCC1; Piperidide(4-Me) = CC1CCN(*)CC1; NMeD = CN[C@@H](CC(=O)O)C(=O)O; NMeL = CN[C@@H](CC(C)C)C(=O)O; NMeNva = CCC[C@H](NC)C(=O)O; Morpholide = C1CN(*)CCO1; NMeA = CN[C@@H](C)C(=O)O; Ac5c = NC1(C(=O)O)CCCC1; Aze = O=C(O)[C@@H]1CCN1; Ac4c = NC1(C(=O)O)CCC1; NEtG = CCNCC(=O)O; Sar = CNCC(=O)O

Key:
HRAS wild-type protein = HRAS wild-type protein (Homo sapiens, UniProt P01112); test: Binding to HRAS by surface plasmon resonance (SPR), KD and KD ratio to KRAS
How it was run: (§1)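 GDP-bound biotin-Avi RAS captured at ~100–300 RU, 30°C, pH 7.4 HBS containing 10 µM GDP, 10 mM MgCl2, 1 mM DTT, 0.01% Tween 20 and 4% DMSO. KD by 1:1 fitting.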

[1] = biological target: GDP-bound NRAS wild-type protein (Homo sapiens, UniProt P01111); test: Binding to NRAS by surface plasmon resonance (SPR), KD and KD ratio to KRAS
How it was run: as §1

[2] = tested on: human lung cancer strain NCI-H441; type: cell-based
How it was run: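 Readout: […] after the ATP-based reagent. Compound: serial dilutions in dimethyl sulfoxide.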

[3] = ratio of the KD value with respect to HRAS wild-type protein to the KD value with respect to KRAS
[4] = ratio of the KD value with respect to GDP-bound NRAS wild-type protein to the KD value with respect to KRAS
[5] = ratio of KD for HRAS wild-type protein to KD for KRAS
[6] = ratio of KD for GDP-bound NRAS wild-type protein to KD for KRAS
[7] = ratio of KD value for HRAS wild-type protein to KD value for KRAS (SPR)
[8] = ratio of KD value for GDP-bound NRAS wild-type protein to KD value for KRAS (SPR)

Chain of HRAS wild-type protein (P01112 whole entry): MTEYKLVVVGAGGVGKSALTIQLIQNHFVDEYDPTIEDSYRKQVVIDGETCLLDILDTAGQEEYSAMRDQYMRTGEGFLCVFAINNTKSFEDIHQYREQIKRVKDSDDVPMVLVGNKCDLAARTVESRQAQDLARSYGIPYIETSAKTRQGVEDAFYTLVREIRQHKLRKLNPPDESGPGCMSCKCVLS
Chain of GDP-bound NRAS wild-type protein (P01111 whole entry): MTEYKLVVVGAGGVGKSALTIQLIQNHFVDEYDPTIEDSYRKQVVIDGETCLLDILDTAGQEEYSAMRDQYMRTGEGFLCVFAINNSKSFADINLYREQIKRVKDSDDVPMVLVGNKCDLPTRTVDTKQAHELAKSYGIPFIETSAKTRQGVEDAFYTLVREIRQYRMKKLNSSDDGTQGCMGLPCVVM

SMILES | HRAS /KRAS (HRAS wild-type protein; [3]) | NRAS /KRAS [1, 4] | IC50 [2] [nM] | HRAS /KRAS (HRAS wild-type protein; [5]) | NRAS /KRAS [1, 6] | HRAS /KRAS (HRAS wild-type protein; [7]) | NRAS /KRAS [1, 8]
CCO[C@@H]1C[C@H]2C(=O)NC3(CCC(F)(F)CC3)C(=O)N(C)[C@@H](C3CCCC3)C(=O)N(C)[C@H](C(=O)N(C)C)CC(=O)N(C)[C@@H](C)C(=O)N[C@@H]([C@@H](C)CC)C(=O)N(C)CC(=O)N(C)[C@H]3CCCCCN(C3=O)[C@@H](Cc3ccc(C(F)(F)F)cc3)C(=O)N(C)CC(=O)N[C@@H](CCc3cc(F)c(C(F)(F)F)c(F)c3)C(=O)N2C1 [PP0725] | B (a compound having 3 or more and less than 10 is denoted as B) | B (a compound having 3 or more and less than 10 is denoted as B) | 194 | – | – | – | –
CC[C@H](C)[C@@H]1NC(=O)[C@H](CC(C)C)N(C)C(=O)C[C@@H](C(=O)N2CCOCC2)N(C)C(=O)[C@H](C2CCCC2)N(C)C(=O)C2(CCCC2)NC(=O)[C@@H]2CCCN2C(=O)[C@H](CCc2ccc(C(F)(F)F)c(Cl)c2)NC(=O)CN(C)C(=O)[C@H](Cc2ccc(C)cc2)N(C)C(=O)CN(CC)C(=O)CN(C)C1=O [PP0019] ([NMeL]I[Sar][NEtG][NMePhe(4-Me)][Sar][hPhe(3-Cl-4-CF3)]P[Ac5c][NMeGly(cPent)][NMeD]-Morpholide; lactam N-11) | – | – | 6.7 | C (A compound having a KD ratio of 0.1 or more and less than 3 is denoted as C) | C (A compound having a KD ratio of 0.1 or more and less than 3 is denoted as C) | – | –
CCO[C@@H]1C[C@H]2C(=O)NC3(CCCC3)C(=O)N(C)[C@@H](C3CCCC3)C(=O)N(C)[C@H](C(=O)N(C)C)CC(=O)N(C)[C@@H](CC)C(=O)N[C@@H]([C@@H](C)CC)C(=O)N(C)CC(=O)N(C)[C@H]3CC(C)=C(C)CN(C3=O)[C@@H](Cc3ccc(C(F)(F)F)cc3)C(=O)N(C)CC(=O)N[C@@H](CCc3cc(F)c(C(F)(F)F)c(F)c3)C(=O)N2C1 [PP1050] | – | – | 815 | C (A compound having a KD ratio of 0.1 or more and less than 3 is denoted as C) | C (A compound having a KD ratio of 0.1 or more and less than 3 is denoted as C) | – | –
CC[C@H](C)[C@@H]1NC(=O)[C@H](CC(C)C)N(C)C(=O)C[C@@H](C(=O)N2CCCC2)N(C)C(=O)[C@H](C2CCCC2)N(C)C(=O)C2(CCCC2)NC(=O)[C@@H]2CCCN2C(=O)[C@H](CCc2cc(F)c(C(F)(F)F)c(F)c2)NC(=O)CN(C)C(=O)[C@H](Cc2ccc(C(F)(F)F)cc2)N2CCCCC[C@@H](C2=O)N(C)C(=O)CN(C)C1=O [PP0509] | B (a compound having 3 or more and less than 10 is denoted as B) | B (a compound having 3 or more and less than 10 is denoted as B) | 109 | – | – | – | –
CC[C@H](C)[C@@H]1NC(=O)[C@H](CC(C)C)N(C)C(=O)C[C@@H](C(=O)N2CCOCC2)N(C)C(=O)[C@H](C2CCCC2)N(C)C(=O)C2(CCCC2)NC(=O)[C@@H]2CCCN2C(=O)[C@H](CCc2cc(F)c(C(F)(F)F)c(F)c2)NC(=O)CN(C)C(=O)[C@H](Cc2ccc(C(F)(F)F)cc2)N2CCCCC[C@@H](C2=O)N(C)C(=O)[C@@H]2CCN2C1=O [PP0484] | B (a compound having 3 or more and less than 10 is denoted as B) | A (a compound having 10 or more and less than 20 is denoted as A) | 165 | – | – | – | –
CCC[C@H]1C(=O)N[C@@H]([C@@H](C)CC)C(=O)N(C)CC(=O)N(C)[C@H]2C/C=C\CCN(C2=O)[C@@H](Cc2ccc(C)cc2)C(=O)N(C)CC(=O)N[C@@H](CCc2cc(F)c(C(F)F)c(F)c2)C(=O)N2C[C@H](OCC)C[C@H]2C(=O)NC2(CC(C)(C)C2)C(=O)N(C)[C@@H](C2CCCC2)C(=O)N(C)[C@H](C(=O)N(C)C)CC(=O)N1C [PP2782] | – | – | 59.1 | A (a compound having 10 or more and less than 20 is denoted as A) | A (a compound having 10 or more and less than 20 is denoted as A) | – | –
CCCN1C(=O)[C@@H]2CCN2C(=O)[C@H](C)N(C)C(=O)[C@H]([C@@H](C)CC)NC(=O)[C@H](CC(C)C)N(C)C(=O)C[C@@H](C(=O)N2CCC(C)CC2)N(C)C(=O)[C@H](C2CCCC2)N(C)C(=O)C2(CCCC2)NC(=O)[C@@H]2CCCN2C(=O)[C@H](CCc2ccc(C(F)(F)F)c(Cl)c2)NC(=O)CN(C)C(=O)[C@@H]1Cc1ccc(C(F)(F)F)cc1 [PP0185] ([NMeL]I[NMeA][Aze][NPrPhe(4-CF3)][Sar][hPhe(3-Cl-4-CF3)]P[Ac5c][NMeGly(cPent)][NMeD]-{Piperidide(4-Me)}; lactam N-11) | – | – | 32.2 | B (a compound having 3 or more and less than 10 is denoted as B) | C (A compound having a KD ratio of 0.1 or more and less than 3 is denoted as C) | – | –
CCC[C@H]1C(=O)N[C@@H]([C@@H](C)CC)C(=O)N(C)CC(=O)N(C)CC(=O)N(CCC)[C@@H](Cc2ccc(C(F)(F)F)cc2)C(=O)N(C)CC(=O)N[C@@H](CCc2ccc(C(F)(F)F)c(Cl)c2)C(=O)N2CCC[C@H]2C(=O)NC2(CCC2)C(=O)N(C)[C@@H](C2CCCC2)C(=O)N(CCC)[C@H](C(=O)N2CCOCC2)CC(=O)N1C [PP1954] ([NMeNva]I[Sar][Sar][NPrPhe(4-CF3)][Sar][hPhe(3-Cl-4-CF3)]P[Ac4c][NMeGly(cPent)][NPrAsp]-Morpholide; lactam N-11) | B (a compound having 3 or more and less than 10 is denoted as B) | B (a compound having 3 or more and less than 10 is denoted as B) | 8.1 | – | – | – | –
CCO[C@@H]1C[C@H]2C(=O)NC3(CC(C)(C)C3)C(=O)N(C)[C@@H](C(CC)CC)C(=O)N(C)[C@H](C(=O)N3CCCC3)CC(=O)N(C)[C@@H](CC)C(=O)N[C@@H]([C@@H](C)CC)C(=O)N(C)CC(=O)N(C)[C@H]3C/C=C\CCN(C3=O)[C@@H](Cc3ccc(C)cc3)C(=O)N(C)CC(=O)N[C@@H](CCc3ccc(C(F)(F)F)c(OC)c3)C(=O)N2C1 [PP2171] | A (a compound having 10 or more and less than 20 is denoted as A) | A (a compound having 10 or more and less than 20 is denoted as A) | 19.6 | – | – | – | –
CCCN1C(=O)[C@@H]2CCN2C(=O)[C@H](C)N(C)C(=O)[C@H]([C@@H](C)CC)NC(=O)[C@H](C2CCC2)N(C)C(=O)C[C@@H](C(=O)N2CCOCC2)N(C)C(=O)[C@H](C2CCCC2)N(C)C(=O)C2(CCCC2)NC(=O)[C@@H]2CCCN2C(=O)[C@H](CCc2ccc(C(F)(F)F)c(Cl)c2)NC(=O)CN(C)C(=O)[C@@H]1Cc1ccc(C(F)(F)F)cc1 [PP0192] ([NMeGly(cBu)]I[NMeA][Aze][NPrPhe(4-CF3)][Sar][hPhe(3-Cl-4-CF3)]P[Ac5c][NMeGly(cPent)][NMeD]-Morpholide; lactam N-11) | – | – | 2.6 | B (a compound having 3 or more and less than 10 is denoted as B) | C (A compound having a KD ratio of 0.1 or more and less than 3 is denoted as C) | – | –
CCO[C@@H]1C[C@H]2C(=O)NC3(CCC3)C(=O)N(C)[C@@H](C3CCCC3)C(=O)N(C)[C@H](C(=O)N(C)C)CC(=O)N(C)[C@@H](CC(C)C)C(=O)N[C@@H]([C@@H](C)CC)C(=O)N(C)CC(=O)N(C)[C@H]3C/C=C\CCN(C3=O)[C@@H](Cc3ccc(F)cc3C)C(=O)N(C)CC(=O)N[C@@H](CCc3cc(F)c(C(F)(F)F)c(F)c3)C(=O)N2C1 [PP1532] | – | – | 13.4 | – | – | B (a compound having 3 or more and less than 10 is denoted as B) | A (a compound having 10 or more and less than 20 is denoted as A)
CCCN1C(=O)[C@@H]2CCN2C(=O)[C@H](C)N(C)C(=O)[C@H]([C@@H](C)CC)NC(=O)[C@H](CC(C)C)N(C)C(=O)C[C@@H](C(=O)N(C)C)N(C)C(=O)[C@H](C(CC)CC)N(C)C(=O)C2(CCC2)NC(=O)[C@@H]2CCCN2C(=O)[C@H](CCc2ccc(C(F)(F)F)c(Cl)c2)NC(=O)CN(C)C(=O)[C@@H]1Cc1ccc(C(F)(F)F)cc1 [PP1961] ([NMeL]I[NMeA][Aze][NPrPhe(4-CF3)][Sar][hPhe(3-Cl-4-CF3)]P[Ac4c][NMeNva(3-Et)][NMeD]-NMe2; lactam N-11) | C (A compound having a KD ratio of 0.1 or more and less than 3 is denoted as C) | C (A compound having a KD ratio of 0.1 or more and less than 3 is denoted as C) | 8 | – | – | – | –
CCC[C@H]1C(=O)N[C@@H]([C@@H](C)CC)C(=O)N(C)CC(=O)N(C)[C@H]2C/C=C\CCN(C2=O)[C@@H](Cc2ccc(C(F)(F)F)cc2)C(=O)N(C)CC(=O)N[C@@H](CCc2cc(F)c(C(F)(F)F)c(F)c2)C(=O)N2C[C@H](OCC)C[C@H]2C(=O)N(C)C2(CCC2)C(=O)N(C)[C@@H](C2CCCC2)C(=O)N(C)[C@H](C(=O)N2CCCCC2)CC(=O)N1C [PP3118] | – | – | 6.7 | B (a compound having 3 or more and less than 10 is denoted as B) | A (a compound having 10 or more and less than 20 is denoted as A) | – | –
CCC[C@H]1C(=O)N[C@@H]([C@@H](C)CC)C(=O)N(C)CC(=O)N(C)[C@H]2C/C=C\CCN(C2=O)[C@@H](Cc2ccc(C)cc2)C(=O)N(C)CC(=O)N[C@@H](CCc2ccc(C(F)(F)F)c(OC)c2)C(=O)N2C[C@@H](C)C[C@H]2C(=O)NC2(CC(C)(C)C2)C(=O)N(C)[C@@H](C2CCCC2)C(=O)N(C)[C@H](C(=O)N(C)CC)CC(=O)N1C [PP1889] | – | – | 12.5 | – | – | B (a compound having 3 or more and less than 10 is denoted as B) | A (a compound having 10 or more and less than 20 is denoted as A)
